Data as given in patent publication US10815230B2, “Casein kinase 1 delta inhibitor” (ELECTROPHORETICS LIMITED, priority 2015, dated 2020).

Columns and labels:
Assay in all cases: Kinase selectivity, % remaining activity
Type in all cases: biochemical
Conditions in all cases: 10 μM compound, 10 μM ATP, duplicate, read-out: % of remaining activity (relative to DMSO)
ABL2/ARG = ABL2/ARG (Homo sapiens, UniProt P42684)
Method: (§1) A two-tier strategy to determine the selectivity of compound A was applied: first, the compound was tested at a single concentration (in duplicate) to determine the %-remaining activity of the target kinase. Subsequently, the IC50 of compound A and comparative compounds for casein kinase 1 delta were determined.
(§2) Compounds were tested in single dose duplicate mode at a concentration of 10 μM (in DMSO) and reactions were carried out at 10 μM ATP, Table 3 reports the % of remaining activity (relative to DMSO).

ALK5/TGFBR1 = biological target: T1, ALK5/TGFBR1 (Homo sapiens, UniProt P36897)
T1 sequence (P36897 34-503): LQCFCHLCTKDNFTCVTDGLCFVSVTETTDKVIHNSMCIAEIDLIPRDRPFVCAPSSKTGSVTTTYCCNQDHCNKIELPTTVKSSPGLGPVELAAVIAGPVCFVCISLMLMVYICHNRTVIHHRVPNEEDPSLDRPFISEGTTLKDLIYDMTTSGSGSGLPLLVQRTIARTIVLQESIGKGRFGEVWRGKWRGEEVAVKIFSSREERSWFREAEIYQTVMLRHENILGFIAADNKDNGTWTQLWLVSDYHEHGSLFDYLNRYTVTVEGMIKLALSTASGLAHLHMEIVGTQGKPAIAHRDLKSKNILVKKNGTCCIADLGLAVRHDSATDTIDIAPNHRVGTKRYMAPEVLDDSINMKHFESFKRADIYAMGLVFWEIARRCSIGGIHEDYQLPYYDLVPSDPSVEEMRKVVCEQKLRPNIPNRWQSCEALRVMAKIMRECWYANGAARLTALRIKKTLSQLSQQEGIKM
Method: as §1, §2

CK1e = CK1e (Homo sapiens, UniProt P49674)
Method: as §1, §2

CK1g1 = CK1g1 (Homo sapiens, UniProt Q9HCP0)
Method: as §1, §2

CK1g2 = CK1g2 (Homo sapiens, UniProt P78368)
Method: as §1, §2

CK1g3 = CK1g3 (Homo sapiens, UniProt Q9Y6M4)
Method: as §1, §2

CLK2 = CLK2 (Homo sapiens, UniProt P49760)
Method: as §1, §2

DAPK1 = DAPK1 (Homo sapiens, UniProt P53355)
Method: as §1, §2

EPHA2 = EPHA2 (Homo sapiens, UniProt P29317)
Sequence of EPHA2 (P29317 24-976): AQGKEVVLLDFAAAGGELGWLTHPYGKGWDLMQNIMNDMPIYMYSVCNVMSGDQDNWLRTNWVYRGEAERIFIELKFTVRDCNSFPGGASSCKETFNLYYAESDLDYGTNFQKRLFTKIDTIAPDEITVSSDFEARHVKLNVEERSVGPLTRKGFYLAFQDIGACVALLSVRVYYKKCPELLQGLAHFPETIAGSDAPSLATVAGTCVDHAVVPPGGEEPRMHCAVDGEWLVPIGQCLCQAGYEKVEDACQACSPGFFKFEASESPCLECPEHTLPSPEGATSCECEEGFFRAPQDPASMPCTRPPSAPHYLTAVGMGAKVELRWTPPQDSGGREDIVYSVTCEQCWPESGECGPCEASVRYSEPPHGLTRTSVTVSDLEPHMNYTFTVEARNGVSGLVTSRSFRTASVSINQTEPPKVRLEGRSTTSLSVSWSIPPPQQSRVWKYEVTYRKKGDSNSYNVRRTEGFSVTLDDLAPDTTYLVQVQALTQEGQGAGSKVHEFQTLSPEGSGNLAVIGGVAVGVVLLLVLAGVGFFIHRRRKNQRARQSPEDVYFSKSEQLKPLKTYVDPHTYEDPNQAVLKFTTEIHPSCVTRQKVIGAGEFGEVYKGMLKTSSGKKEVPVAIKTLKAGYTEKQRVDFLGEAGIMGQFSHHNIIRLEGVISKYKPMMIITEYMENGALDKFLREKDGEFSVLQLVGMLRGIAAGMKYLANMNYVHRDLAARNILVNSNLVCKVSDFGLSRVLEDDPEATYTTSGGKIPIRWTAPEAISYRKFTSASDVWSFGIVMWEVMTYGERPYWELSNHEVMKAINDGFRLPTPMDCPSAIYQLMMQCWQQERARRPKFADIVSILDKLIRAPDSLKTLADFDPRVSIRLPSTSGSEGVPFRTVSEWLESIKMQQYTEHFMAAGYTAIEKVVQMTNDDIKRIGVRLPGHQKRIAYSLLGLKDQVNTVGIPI
Method: as §1, §2

FGFR1 = FGFR1 (Homo sapiens, UniProt P11362)
Method: as §1, §2

GSK3B = GSK3B (Homo sapiens, UniProt P49841)
Sequence of GSK3B (P49841 whole entry): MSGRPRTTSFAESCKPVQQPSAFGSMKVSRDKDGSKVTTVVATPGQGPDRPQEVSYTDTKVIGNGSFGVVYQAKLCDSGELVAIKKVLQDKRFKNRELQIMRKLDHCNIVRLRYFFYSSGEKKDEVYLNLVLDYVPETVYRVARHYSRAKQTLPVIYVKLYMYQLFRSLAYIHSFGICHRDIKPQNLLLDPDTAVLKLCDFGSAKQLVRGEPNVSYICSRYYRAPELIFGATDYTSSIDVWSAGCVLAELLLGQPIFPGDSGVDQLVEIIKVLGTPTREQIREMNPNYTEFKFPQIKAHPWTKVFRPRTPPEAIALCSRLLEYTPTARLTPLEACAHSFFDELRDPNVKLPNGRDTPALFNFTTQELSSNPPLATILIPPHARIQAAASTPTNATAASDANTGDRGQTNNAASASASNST
Method: as §1, §2

JNK2 = JNK2 (Homo sapiens, UniProt P45984)
Sequence of JNK2 (P45984 whole entry): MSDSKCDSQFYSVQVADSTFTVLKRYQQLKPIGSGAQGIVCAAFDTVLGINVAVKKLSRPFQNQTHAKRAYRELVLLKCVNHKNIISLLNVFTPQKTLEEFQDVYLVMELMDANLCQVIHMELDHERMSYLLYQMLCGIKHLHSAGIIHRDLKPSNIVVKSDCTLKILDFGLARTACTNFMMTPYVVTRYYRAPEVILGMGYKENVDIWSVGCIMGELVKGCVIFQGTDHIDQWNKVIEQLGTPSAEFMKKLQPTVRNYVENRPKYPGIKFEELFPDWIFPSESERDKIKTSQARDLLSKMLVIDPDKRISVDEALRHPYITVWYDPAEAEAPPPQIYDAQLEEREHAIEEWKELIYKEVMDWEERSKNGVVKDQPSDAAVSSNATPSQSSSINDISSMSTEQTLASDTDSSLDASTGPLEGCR
Method: as §1, §2

KDR/VEGFR2 = KDR/VEGFR2 (Homo sapiens, UniProt P35968)
Method: as §1, §2

LCK = LCK (Homo sapiens, UniProt P06239)
Sequence of LCK (P06239 whole entry): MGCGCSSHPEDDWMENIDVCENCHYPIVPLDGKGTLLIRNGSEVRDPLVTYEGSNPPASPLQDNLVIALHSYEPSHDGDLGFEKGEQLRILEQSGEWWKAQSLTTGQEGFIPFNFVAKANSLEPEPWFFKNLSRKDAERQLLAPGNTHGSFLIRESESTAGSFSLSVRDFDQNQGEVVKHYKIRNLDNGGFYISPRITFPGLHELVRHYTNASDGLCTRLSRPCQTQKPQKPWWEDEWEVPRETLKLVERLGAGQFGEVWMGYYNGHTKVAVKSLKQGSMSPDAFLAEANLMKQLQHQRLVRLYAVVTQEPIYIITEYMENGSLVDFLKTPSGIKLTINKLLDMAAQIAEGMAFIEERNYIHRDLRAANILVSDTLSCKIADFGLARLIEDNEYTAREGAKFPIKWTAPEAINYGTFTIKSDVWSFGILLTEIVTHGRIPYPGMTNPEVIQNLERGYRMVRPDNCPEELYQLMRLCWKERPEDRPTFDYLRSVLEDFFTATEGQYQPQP
Method: as §1, §2

P38a/MAPK14 = P38a/MAPK14 (Homo sapiens, UniProt Q16539)
Sequence of P38a/MAPK14 (Q16539 whole entry): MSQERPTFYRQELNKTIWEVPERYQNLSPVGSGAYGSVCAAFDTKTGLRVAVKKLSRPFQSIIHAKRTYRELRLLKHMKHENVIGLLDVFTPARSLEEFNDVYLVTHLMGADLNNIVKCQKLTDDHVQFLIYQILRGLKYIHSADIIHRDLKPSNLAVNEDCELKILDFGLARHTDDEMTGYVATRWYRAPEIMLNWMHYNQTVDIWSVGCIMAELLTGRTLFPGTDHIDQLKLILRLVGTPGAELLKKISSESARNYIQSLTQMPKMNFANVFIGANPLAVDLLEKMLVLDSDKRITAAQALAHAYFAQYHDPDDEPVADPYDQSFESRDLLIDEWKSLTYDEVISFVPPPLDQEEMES
Method: as §1, §2

PDK1/PDPK1 = biological target: T2, PDK1/PDPK1 (Homo sapiens, UniProt O15530)
T2 sequence (O15530 1-556): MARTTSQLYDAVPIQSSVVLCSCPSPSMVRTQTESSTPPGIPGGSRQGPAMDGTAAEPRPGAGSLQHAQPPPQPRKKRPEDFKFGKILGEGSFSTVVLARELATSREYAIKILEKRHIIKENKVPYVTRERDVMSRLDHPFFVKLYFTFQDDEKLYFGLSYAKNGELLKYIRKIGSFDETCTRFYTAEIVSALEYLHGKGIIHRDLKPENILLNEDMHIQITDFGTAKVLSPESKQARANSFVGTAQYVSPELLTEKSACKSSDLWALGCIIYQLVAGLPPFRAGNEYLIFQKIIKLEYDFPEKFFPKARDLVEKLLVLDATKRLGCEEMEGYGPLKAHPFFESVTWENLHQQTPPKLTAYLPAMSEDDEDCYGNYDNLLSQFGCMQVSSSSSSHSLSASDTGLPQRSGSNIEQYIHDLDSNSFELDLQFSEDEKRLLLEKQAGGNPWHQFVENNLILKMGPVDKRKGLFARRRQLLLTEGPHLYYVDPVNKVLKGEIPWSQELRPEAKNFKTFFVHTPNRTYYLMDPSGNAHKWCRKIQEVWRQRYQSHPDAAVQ
Method: as §1, §2

PIM3 = PIM3 (Homo sapiens, UniProt Q86V86)
Method: as §1, §2

PKA = PKA (Homo sapiens, UniProt P17612)
Method: as §1, §2

PKCb2 = PKCb2 (Homo sapiens, UniProt P05771)
Method: as §1, §2

RIPK2 = RIPK2 (Homo sapiens, UniProt O43353)
Method: as §1, §2

TNIK = TNIK (Homo sapiens, UniProt Q9UKE5)
Method: as §1, §2

YES/YES1 = YES/YES1 (Homo sapiens, UniProt P07947)
Sequence of YES/YES1 (P07947 whole entry): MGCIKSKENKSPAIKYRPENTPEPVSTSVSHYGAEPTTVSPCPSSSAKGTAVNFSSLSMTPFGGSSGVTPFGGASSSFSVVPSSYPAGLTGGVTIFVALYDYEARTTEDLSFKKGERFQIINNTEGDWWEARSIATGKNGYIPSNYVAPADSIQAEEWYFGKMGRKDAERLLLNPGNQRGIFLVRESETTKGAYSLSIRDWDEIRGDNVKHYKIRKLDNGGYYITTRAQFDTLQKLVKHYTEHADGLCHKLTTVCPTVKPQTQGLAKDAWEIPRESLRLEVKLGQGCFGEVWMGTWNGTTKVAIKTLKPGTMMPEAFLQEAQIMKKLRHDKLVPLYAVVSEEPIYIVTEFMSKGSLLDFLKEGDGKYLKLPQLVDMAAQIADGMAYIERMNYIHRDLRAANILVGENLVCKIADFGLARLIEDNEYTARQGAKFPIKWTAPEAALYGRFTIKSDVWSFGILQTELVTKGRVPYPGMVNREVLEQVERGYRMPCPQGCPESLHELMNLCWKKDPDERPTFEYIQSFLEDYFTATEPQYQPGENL
Method: as §1, §2

c-Src = c-Src (Homo sapiens, UniProt P12931)
Sequence of c-Src (P12931 whole entry, species assumed): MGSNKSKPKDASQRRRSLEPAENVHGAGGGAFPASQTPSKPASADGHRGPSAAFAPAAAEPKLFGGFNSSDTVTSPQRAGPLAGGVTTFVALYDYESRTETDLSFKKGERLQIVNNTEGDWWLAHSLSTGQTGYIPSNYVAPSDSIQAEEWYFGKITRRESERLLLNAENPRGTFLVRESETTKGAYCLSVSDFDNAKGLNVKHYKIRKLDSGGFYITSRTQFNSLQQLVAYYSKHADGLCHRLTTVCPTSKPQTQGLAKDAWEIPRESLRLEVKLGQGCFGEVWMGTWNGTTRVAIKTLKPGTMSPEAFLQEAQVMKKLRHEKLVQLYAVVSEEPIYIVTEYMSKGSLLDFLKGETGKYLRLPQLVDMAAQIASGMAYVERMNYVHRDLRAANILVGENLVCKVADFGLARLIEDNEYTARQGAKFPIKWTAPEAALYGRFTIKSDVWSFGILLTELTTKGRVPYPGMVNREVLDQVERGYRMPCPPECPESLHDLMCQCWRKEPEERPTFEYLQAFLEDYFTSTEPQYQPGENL
Method: as §1, §2

Sequence of ABL2/ARG (P42684 whole entry): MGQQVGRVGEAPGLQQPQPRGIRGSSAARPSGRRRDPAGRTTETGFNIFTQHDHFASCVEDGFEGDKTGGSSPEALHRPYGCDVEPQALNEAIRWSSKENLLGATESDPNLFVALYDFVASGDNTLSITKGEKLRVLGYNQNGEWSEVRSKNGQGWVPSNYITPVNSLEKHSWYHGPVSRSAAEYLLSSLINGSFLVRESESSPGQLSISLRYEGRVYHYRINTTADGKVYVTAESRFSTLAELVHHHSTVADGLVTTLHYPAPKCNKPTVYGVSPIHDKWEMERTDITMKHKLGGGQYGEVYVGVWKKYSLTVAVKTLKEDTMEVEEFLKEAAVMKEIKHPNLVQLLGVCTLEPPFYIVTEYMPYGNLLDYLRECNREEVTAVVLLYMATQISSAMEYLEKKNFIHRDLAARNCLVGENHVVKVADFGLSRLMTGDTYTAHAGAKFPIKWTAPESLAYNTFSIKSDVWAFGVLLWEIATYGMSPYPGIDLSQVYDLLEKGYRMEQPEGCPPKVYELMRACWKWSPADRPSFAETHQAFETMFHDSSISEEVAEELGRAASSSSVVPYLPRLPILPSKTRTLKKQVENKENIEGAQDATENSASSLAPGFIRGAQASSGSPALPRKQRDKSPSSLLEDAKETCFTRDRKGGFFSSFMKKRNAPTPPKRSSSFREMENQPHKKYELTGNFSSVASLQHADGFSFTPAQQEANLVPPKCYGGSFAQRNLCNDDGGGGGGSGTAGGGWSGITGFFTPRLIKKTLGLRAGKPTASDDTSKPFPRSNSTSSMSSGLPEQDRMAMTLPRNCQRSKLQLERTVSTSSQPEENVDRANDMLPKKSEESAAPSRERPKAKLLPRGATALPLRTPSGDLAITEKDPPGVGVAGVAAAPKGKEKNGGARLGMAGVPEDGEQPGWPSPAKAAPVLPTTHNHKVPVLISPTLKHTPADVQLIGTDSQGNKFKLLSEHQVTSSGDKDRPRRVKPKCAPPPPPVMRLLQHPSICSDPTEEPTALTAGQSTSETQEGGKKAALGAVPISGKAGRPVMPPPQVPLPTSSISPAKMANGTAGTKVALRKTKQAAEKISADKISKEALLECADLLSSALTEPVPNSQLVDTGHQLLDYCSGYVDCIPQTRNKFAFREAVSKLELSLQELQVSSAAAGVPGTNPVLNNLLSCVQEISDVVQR

remaining activity at 10 µM (ABL2/ARG): 68.4%
remaining activity at 10 µM (ALK5/TGFBR1): 105%
remaining activity at 10 µM (CK1e): 3%
remaining activity at 10 µM (CK1g1): 85.1%
remaining activity at 10 µM (CK1g2): 86%
remaining activity at 10 µM (CK1g3): 88.9%
remaining activity at 10 µM (CLK2): 105%
remaining activity at 10 µM (DAPK1): 92.5%
remaining activity at 10 µM (EPHA2): 39%
remaining activity at 10 µM (FGFR1): 80.8%
remaining activity at 10 µM (GSK3B): 114%
remaining activity at 10 µM (JNK2): 96.5%
remaining activity at 10 µM (KDR/VEGFR2): 83.1%
remaining activity at 10 µM (LCK): 19.9%
remaining activity at 10 µM (P38a/MAPK14): 71.2%
remaining activity at 10 µM (PDK1/PDPK1): 103%
remaining activity at 10 µM (PIM3): 116%
remaining activity at 10 µM (PKA): 83%
remaining activity at 10 µM (PKCb2): 88.5%
remaining activity at 10 µM (RIPK2): 47.6%
remaining activity at 10 µM (TNIK): 89.7%
remaining activity at 10 µM (YES/YES1): 15.5%
remaining activity at 10 µM (c-Src): 44%
SMILES: Nc1ncnc2c1c(COc1cccc(Cl)c1)nn2C1CCOCC1 [PF4800567, 3-[(3-Chlorophenoxy)methyl]-1-(tetrahydro-2H-pyran-4-yl)-1H-pyrazolo[3,4-d]pyrimidin-4-amine]
